Measurements reported in US20110039762A1, “TARGETED ANTIMICROBIAL MOIETIES” (C3 JIAN, INC., priority 2009, published 2011).
“Also recorded” adds a separate entry of the source.

Key:
[1] = test system: microorganisms (e.g., bacteria, yeasts, fungi); test: Targeting peptide binding to target microorganisms (Table 3); details: preferably 1x PBS; for Target(s) (microorganisms bound by the targeting peptide): peptide binding in aqueous buffers varied by peptide solubility; for Target(s): microorganism(s) the targeting peptide binds
[2] = test system: microorganisms; test: Peptides having multiple activities (targeting/binding, antimicrobial, growth or phenotype altering)
Description: In certain embodiments, peptides described herein can have multiple activities. Thus for example, a peptide can have both binding/targeting activity and antimicrobial activity. Such peptides can be used, e.g., in a chimeric construct, for any or all of these properties. Thus, for example, a peptide designated “B” in Table 8 can be used as a targeting peptide. If it is also designated G or M it can also be used for antimicrobial activity.

[3] = test system: E. faecalis; test: Kill or inhibit growth/proliferation; morphology, biofilm and growth disruption (Tables 5, 6); type: cell-based, Enterococcus faecalis; parameters: key: A: Peptide aggregates; B: Less hyphal formation; Clumps; Diffuse clumps and small polyps; F: Diffuse growth; H: Thin; I: Growth inhibition; Microcolony formation; Rippled; Small polyps; Thick; W: Halo formation on top, microlonies on bottom; note: test concentration or dose not given here
[4] = test system: MRSA; test: as above; type: cell-based, Methicillin-resistant Staphylococcus aureus; parameters: key: A: Peptide aggregates; B: Less hyphal formation; Clumps; Diffuse clumps and small polyps; F: Diffuse growth; H: Thin; I: Growth inhibition; Microcolony formation; Rippled; Small polyps; Thick; W: Halo formation on top, microlonies on bottom; note: test concentration or dose not given here
[5] = test system: S. epidermidis; test: as above; type: cell-based, Staphylococcus epidermidis; parameters: key: A: Peptide aggregates; B: Less hyphal formation; Clumps; Diffuse clumps and small polyps; F: Diffuse growth; H: Thin; I: Growth inhibition; Microcolony formation; Rippled; Small polyps; Thick; W: Halo formation on top, microlonies on bottom; note: test concentration or dose not given here
[6] = test system: S. pneumoniae; test: as above; type: cell-based, Streptococcus pneumoniae; parameters: key: A: Peptide aggregates; B: Less hyphal formation; Clumps; Diffuse clumps and small polyps; F: Diffuse growth; H: Thin; I: Growth inhibition; Microcolony formation; Rippled; Small polyps; Thick; W: Halo formation on top, microlonies on bottom; note: test concentration or dose not given here
[7] = binding in aqueous buffers depending on peptide solubility
[8] = peptide binding conducted in aqueous buffers varied by peptide solubility

Substance | Target(s) (microorganisms bound by the targeting peptide) [1] | Activities [2] | Organism, effect [3] | Organism, effect [4] | Target(s) [1, 8] | also measured
DEIKVSDEEIEKFIKENNL [PF-597] | P. mirabilis | G B | E. faecalis (A) |  |  | 
PF-373: peptide having multiple activities (chain 1 HFYLLFER; chain 2 HFYLLFER; Peptide with targeting and/or antimicrobial activity) |  | G B |  | MRSA (M) |  | Target(s) [1, 7]: S. epidermidis and E. coli and P. aeruginosa and C. albicans and MRSA and E. faecalis and C. jejuni; Organism, effect [5]: S. epidermidis (M)
PF-378: peptide having multiple activities (chain 1 ESAKSNLNFLMQEEWALFLLL; chain 2 ESAKSNLNFLMQEEWALFLLL; Peptide with targeting and/or antimicrobial activity) |  | G B |  | MRSA (M) |  | Target(s) [1, 7]: B. subtilis; also recorded: B. fragilis; also recorded: E. coli; also recorded: P. aeruginosa; also recorded: C. jeikeium; Organism, effect [5]: S. epidermidis (M)
PF-394: peptide having multiple activities (chain 1 VLKEECYQKN; chain 2 VLKEECYQKN; Peptide with targeting and/or antimicrobial activity) |  | G B | E. faecalis (A) | MRSA (C) | S. epidermidis and MRSA and C. jejuni | 
PF-404: peptide having multiple activities (VLYFQATVV; Peptide with targeting and/or antimicrobial activity) |  | G B |  | MRSA (M) | S. epidermidis; also recorded: E. coli; also recorded: P. aeruginosa; also recorded: E. faecalis; also recorded: C. jeikeium; also recorded: C. jejuni | Organism, effect [5]: S. epidermidis (M)
PF-406: peptide having multiple activities (YLEMNADYLSNMDIFDELWEKYLENNK; Peptide with targeting and/or antimicrobial activity) |  | G B |  | MRSA (M) | E. coli; also recorded: C. jejuni | Organism, effect [5]: S. epidermidis (C)
PF-408: peptide having multiple activities (YCVPLGNMGNMNNKIW; Peptide with targeting and/or antimicrobial activity) |  | G B |  | MRSA (M) | S. epidermidis and E. coli and P. aeruginosa and MRSA and E. faecalis and C. jeikeium and C. jejuni | Organism, effect [5]: S. epidermidis (M)
PF-417: peptide having multiple activities (DSYFRS; Peptide with targeting and/or antimicrobial activity) |  | G B |  | MRSA (M) | S. epidermidis; also recorded: C. jeikeium; also recorded: C. jejuni | Organism, effect [5]: S. epidermidis (M); Organism, effect [6]: S. pneumoniae (M)
PF-430: peptide having multiple activities (AVVCGYLAYTATS; Peptide with targeting and/or antimicrobial activity) |  | G B |  | MRSA (M) | S. epidermidis; also recorded: M. luteus; also recorded: E. coli; also recorded: S. pneumoniae; also recorded: E. faecalis; also recorded: C. jeikeium; also recorded: C. jejuni | Organism, effect [5]: S. epidermidis (M); Organism, effect [6]: S. pneumoniae (M)
PF-484: peptide having multiple activities (chain 1 HKKDIRKQVFKN; chain 2 HKKDIRKQVFKN; Peptide with targeting and/or antimicrobial activity) |  | G B | E. faecalis (A) |  | S. epidermidis; also recorded: M. luteus; also recorded: P. mirabilis; also recorded: E. coli; also recorded: E. faecalis; also recorded: C. jeikeium; also recorded: C. jejuni | 
PF-582 (NLKTIEKECPFCNNKMDIKLKD; Peptide with targeting and/or antimicrobial activity) |  |  | E. faecalis (A) |  |  | 
PF-588: peptide having multiple activities (ESVEAIKAKAIK; Peptide with targeting and/or antimicrobial activity) |  | G B | E. faecalis (A) |  | S. epidermidis; also recorded: E. coli; also recorded: C. albicans; also recorded: E. faecalis; also recorded: C. jeikeium; also recorded: C. jejuni | 
PF-593: peptide having multiple activities (MEISTLKKEKLHVKDELSQYLANYKK; Peptide with targeting and/or antimicrobial activity) |  | G B | E. faecalis (A) |  | C. jeikeium | 
PF-594: peptide having multiple activities (IVSAIV; Peptide with targeting and/or antimicrobial activity) |  | G B | E. faecalis (C) |  | C. jeikeium | 
PF-602: peptide having multiple activities (LEKEKKEYIEKLFKTK; Peptide with targeting and/or antimicrobial activity) | P. mirabilis; also recorded: C. jeikeium | G B | E. faecalis (A) |  |  | 
PF-604: peptide having multiple activities (LMEQVEV; Peptide with targeting and/or antimicrobial activity) | S. epidermidis; also recorded: C. albicans; also recorded: C. jeikeium | G B | E. faecalis (A) |  |  | 
PF-618 (KLNTLNKKDNPSLNDQDKNAVLNLLALAK; Peptide with targeting and/or antimicrobial activity) |  |  | E. faecalis (H) |  |  | Organism, effect [6]: S. pneumoniae (I)
PF-621: peptide having multiple activities (PPSSFLV; Peptide with targeting and/or antimicrobial activity) | S. epidermidis; also recorded: C. albicans | G B | E. faecalis (H) |  |  | Organism, effect [6]: S. pneumoniae (I)
PF-631: peptide having multiple activities (chain 1 LIIYFSKTGNTARATRQI; chain 2 LIIYFSKTGNTARATRQI; Peptide with targeting and/or antimicrobial activity) | S. epidermidis and P. aeruginosa and C. albicans and MRSA and S. pneumoniae and E. faecalis and C. jeikeium | G B | E. faecalis (H) |  |  | Organism, effect [6]: S. pneumoniae (I)
PF-643 (chain 1 VRCRL; chain 2 VRCRL; Peptide with targeting and/or antimicrobial activity) | Mycobacteria spp |  | E. faecalis (R) | MRSA (C) |  | Organism, effect [6]: S. pneumoniae (R)
PF-649 (chain 1 CPRYPFVDVGPAGPWRARWRVGS; chain 2 CPRYPFVDVGPAGPWRARWRVGS; Peptide with targeting and/or antimicrobial activity) | Mycobacteria spp |  |  |  |  | Organism, effect (morphology, biofilm and growth disruption) [3]: E. faecalis (R)
PF-675 (chain 1 EIIPISPTRRCEMHTMSSAEYRGL; chain 2 EIIPISPTRRCEMHTMSSAEYRGL; Peptide with targeting and/or antimicrobial activity) | Mycobacteria spp |  |  |  |  | Organism, effect (morphology, biofilm and growth disruption) [6]: S. pneumoniae (C); Organism, effect (morphology, biofilm and growth disruption) [3]: E. faecalis (R)
PF-683 (chain 1 LWPVA; chain 2 LWPVA; Peptide with targeting and/or antimicrobial activity) | Mycobacteria spp |  |  |  |  | Organism, effect (morphology, biofilm and growth disruption) [4]: MRSA (R); Organism, effect (morphology, biofilm and growth disruption) [5]: S. epidermidis (R); Organism, effect (morphology, biofilm and growth disruption) [6]: S. pneumoniae (H)
PF-760: peptide having multiple activities (DHITLDDYEIHDGFNFELYYG; Peptide with targeting and/or antimicrobial activity) | S. epidermidis; also recorded: M. luteus | G B |  |  |  | Organism, effect (morphology, biofilm and growth disruption) [4]: MRSA (M); Organism, effect (morphology, biofilm and growth disruption) [5]: S. epidermidis (M); Organism, effect (morphology, biofilm and growth disruption) [6]: S. pneumoniae (C)
